Test results published in US20170260185A1 (priority 2014, published 2017).
Where two headings read alike, the source gives them in different places.

How the values were obtained:
[1] = molecular target: T1, human serotonin transporter (SERT) (Homo sapiens, UniProt P31645); experiment: Scintillation Proximity Assay (SPA) competition binding, [3H]citalopram, hSERT-CHO membranes
T1 construct: expressed in transfected cells; host or cells: CHO (hSERT-CHO), membrane preparation

[2] = molecular target: T2, human dopamine transporter (DAT) (Homo sapiens, UniProt Q01959); experiment: Scintillation Proximity Assay (SPA) competition binding, [3H]WIN-35,428, hDAT-CHO membranes
T2 construct: expressed in transfected cells; host or cells: CHO (hDAT-CHO), membrane preparation
T2 sequence (Q01959 whole entry): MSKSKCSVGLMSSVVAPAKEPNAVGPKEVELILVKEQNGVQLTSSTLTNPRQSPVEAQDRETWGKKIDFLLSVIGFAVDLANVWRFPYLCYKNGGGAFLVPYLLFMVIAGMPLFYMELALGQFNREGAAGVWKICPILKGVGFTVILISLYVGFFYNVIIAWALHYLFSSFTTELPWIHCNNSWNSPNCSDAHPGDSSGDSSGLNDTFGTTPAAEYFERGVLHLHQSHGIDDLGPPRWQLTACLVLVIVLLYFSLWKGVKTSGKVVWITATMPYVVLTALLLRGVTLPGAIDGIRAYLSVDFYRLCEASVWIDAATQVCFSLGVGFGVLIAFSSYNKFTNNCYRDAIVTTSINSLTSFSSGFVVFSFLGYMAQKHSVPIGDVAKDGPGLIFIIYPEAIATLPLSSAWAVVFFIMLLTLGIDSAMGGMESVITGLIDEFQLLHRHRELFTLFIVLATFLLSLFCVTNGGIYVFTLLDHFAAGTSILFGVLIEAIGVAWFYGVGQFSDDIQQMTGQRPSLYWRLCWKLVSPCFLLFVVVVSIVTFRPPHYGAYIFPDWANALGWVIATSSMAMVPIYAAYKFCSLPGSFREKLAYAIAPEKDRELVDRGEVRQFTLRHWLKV

[3] = molecular target: human ERG potassium channel (hERG) (Homo sapiens, UniProt Q12809); experiment: cell-based
human ERG potassium channel (hERG), sequence (Q12809 whole entry): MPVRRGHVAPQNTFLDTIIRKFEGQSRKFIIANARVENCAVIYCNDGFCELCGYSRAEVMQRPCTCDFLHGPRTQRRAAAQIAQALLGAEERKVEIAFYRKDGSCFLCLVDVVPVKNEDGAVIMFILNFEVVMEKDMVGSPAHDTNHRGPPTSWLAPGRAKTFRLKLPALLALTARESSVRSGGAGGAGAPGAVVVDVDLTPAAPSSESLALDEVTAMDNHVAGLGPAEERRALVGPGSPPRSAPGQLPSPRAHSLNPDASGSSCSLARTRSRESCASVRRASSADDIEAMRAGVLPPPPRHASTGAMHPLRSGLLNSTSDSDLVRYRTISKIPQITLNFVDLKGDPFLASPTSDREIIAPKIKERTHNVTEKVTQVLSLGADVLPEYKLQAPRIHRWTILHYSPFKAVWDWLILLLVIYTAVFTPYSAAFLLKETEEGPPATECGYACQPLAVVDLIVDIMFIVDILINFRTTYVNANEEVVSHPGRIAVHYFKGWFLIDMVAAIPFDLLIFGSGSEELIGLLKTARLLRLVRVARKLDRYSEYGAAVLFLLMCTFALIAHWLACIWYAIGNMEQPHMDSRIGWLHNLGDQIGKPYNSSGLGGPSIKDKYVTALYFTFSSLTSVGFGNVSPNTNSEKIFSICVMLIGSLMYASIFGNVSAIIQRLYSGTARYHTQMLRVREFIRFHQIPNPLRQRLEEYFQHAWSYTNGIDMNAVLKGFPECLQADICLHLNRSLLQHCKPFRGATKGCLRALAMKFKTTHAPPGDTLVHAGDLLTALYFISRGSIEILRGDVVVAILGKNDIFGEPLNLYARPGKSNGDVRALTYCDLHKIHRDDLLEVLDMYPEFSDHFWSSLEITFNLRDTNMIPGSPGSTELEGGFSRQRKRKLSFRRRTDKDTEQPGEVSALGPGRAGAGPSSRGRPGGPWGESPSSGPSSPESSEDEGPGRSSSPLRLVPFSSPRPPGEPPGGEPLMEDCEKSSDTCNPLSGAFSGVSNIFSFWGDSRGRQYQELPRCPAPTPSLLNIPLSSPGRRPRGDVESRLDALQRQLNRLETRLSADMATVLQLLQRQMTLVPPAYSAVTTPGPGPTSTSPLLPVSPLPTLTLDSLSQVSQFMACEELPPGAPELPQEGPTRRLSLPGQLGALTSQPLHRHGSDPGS
Procedure: Measure of the Effect on hERG Channel by Tail Current Recording Using In Vitro Rapid ICE™
The potency of the compounds of the invention in inhibiting human ERG potassium channel (hERG) tail current is assessed in a recombinant HEK293 cell line stably transfected with hERG cDNA using Rapid ICE™ (Rapid Ion Channel Electrophysiology) assay. Rapid ICE™ is an automated patch-clamp assay utilizing the PatchXpress 7000A system (Molecular Devices Corporation) or the QPatch HTX system (Sophion Bioscience A/S).
Briefly cells are cultivated for 24 to 72 hours before recordings in minimum essential medium supplemented with 10% FBS, 1% non-essential amino acids, 1% sodium pyruvate, 2 mM L-glutamine. The day of the experiment cells are detached with TrypLE and prepared to be loaded on the instrument. For PatchXpress cells are finally resuspended in 150 μl of Extracellular Buffer whereas for QPatch cells are resuspended in 7 ml Serum-Free Media containing 25 mM Hepes and Soybean trypsin inhibitor and immediately placed in the cell storage tank of the machine. The composition of the Extracellular Buffer is (mM): NaCl 137; KCl 4; CaCl2 1.8; MgCl2 1.0; D-glucose 10; N 2 hydroxyethylpiperazine-N′-2-ethanesulfonic acid (HEPES) 10; pH 7.4 with 1 M NaOH. The composition of the pipette solution is (mM): KCl 130; MgCl2 1.0; Ethylene glycol-bis(R-aminoethyl ether)-N,N,N′,N′-tetraacetic acid (EGTA) 5; MgATP 5; HEPES 10; pH 7.2 with 1 M KOH. The voltage protocol includes the following steps: step from −80 mV to −50 mV for 200 ms, +20 mV for 4.8 s, step to −50 mV for 5 s then step to the holding potential of −80 mV. Compounds of the invention are dissolved in DMSO and diluted in Extracellular Buffer to achieve final test concentrations (0.1, 1 and 10 μM) in 0.1% DMSO. The voltage protocol is run and recorded continuously during the experiment. The vehicle, corresponding to 0.1% DMSO in Extracellular Buffer, is then applied for 3 min followed by the test substance in triplicate. The standard combined exposure time is 5 min. The average of tail current amplitude values recorded from 4 sequential voltage pulses is used to calculate for each cell the effect of the test substance by calculating the residual current (% control) compared with vehicle pre-treatment. Data are reported as % inhibition for each concentration tested and IC50 values are estimated using DataXpress or QPatch software. At least two cells are tested, more if results diverge.

[4] = molecular target: T3, human norepinephrine transporter (NET) (Homo sapiens, UniProt P23975); experiment: Scintillation Proximity Assay (SPA) competition binding, [3H]nisoxetine, hNET-CHO membranes
T3 construct: expressed in transfected cells; host or cells: CHO (hNET-CHO), membrane preparation
T3 sequence (P23975 whole entry): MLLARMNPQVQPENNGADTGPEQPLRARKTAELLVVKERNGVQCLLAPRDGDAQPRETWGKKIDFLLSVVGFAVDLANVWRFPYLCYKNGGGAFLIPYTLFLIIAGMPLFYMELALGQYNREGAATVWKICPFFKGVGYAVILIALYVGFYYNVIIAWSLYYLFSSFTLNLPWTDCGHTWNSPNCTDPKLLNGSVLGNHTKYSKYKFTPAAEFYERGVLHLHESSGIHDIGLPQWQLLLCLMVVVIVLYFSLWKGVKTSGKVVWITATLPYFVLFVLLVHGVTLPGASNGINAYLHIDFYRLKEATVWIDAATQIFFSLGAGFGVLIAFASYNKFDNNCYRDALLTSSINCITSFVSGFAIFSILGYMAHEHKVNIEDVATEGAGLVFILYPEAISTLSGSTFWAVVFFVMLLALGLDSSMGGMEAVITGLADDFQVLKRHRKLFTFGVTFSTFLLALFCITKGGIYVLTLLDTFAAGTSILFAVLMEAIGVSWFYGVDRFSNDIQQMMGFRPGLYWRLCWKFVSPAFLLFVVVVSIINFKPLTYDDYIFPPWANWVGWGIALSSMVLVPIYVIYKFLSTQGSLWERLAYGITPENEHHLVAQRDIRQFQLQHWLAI

[5] = read-out: pIC50 DAT (converted)

T1 sequence (P31645 whole entry): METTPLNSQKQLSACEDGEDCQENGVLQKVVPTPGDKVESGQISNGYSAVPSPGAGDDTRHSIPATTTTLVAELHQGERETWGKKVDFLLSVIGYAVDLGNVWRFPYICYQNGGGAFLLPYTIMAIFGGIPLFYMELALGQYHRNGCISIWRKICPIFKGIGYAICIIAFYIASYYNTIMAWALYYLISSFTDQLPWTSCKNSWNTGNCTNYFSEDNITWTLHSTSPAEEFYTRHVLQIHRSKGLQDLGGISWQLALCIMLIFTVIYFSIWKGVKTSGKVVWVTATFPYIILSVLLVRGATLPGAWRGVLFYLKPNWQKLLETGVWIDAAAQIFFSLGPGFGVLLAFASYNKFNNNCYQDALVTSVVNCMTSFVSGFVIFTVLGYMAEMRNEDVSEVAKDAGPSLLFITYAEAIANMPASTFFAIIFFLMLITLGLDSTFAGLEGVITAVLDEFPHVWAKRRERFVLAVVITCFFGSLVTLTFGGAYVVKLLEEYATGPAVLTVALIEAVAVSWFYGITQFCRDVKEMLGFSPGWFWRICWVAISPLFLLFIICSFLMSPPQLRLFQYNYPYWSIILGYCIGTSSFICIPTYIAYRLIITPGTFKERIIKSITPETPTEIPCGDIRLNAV

SMILES | IC50 [1] | IC50 ([2]; pIC50 DAT) | IC50 [3] | IC50 [4] | IC50 [2, 5]
OC1CCNCC12CCN(C(c1ccc(F)cc1)c1ccc(F)cc1)C2 (centres unmarked) [Example 3, 2-[bis(4-fluorophenyl)methyl]-2,7-diazaspiro[4.5]decan-10-ol] | 12900 nM | 70.8 nM | 2510 nM | 4470 nM | –
CN1CCC(O)C2(CCN(C(c3ccc(F)cc3)c3ccc(F)cc3)C2)C1 (centres unmarked) [Example 4, 2-[bis(4-fluorophenyl)methyl]-7-methyl-2,7-diazaspiro[4.5]decan-10-ol] | 18600 nM | – | 1580 nM | 18200 nM | 195 nM
Fc1ccc(C(c2ccc(F)cc2)N2CCC3(CCNCC3)C2)cc1 [Example 27, 2-[bis(4-fluorophenyl)methyl]-2,8-diazaspiro[4.5]decane] | 3470 nM | – | 2510 nM | 1700 nM | 148 nM
Fc1ccc(C(c2ccc(F)cc2)N2CCC3(CNCCO3)C2)cc1 (centres unmarked) [Example 29, 2-[bis(4-fluorophenyl)methyl]-6-oxa-2,9-diazaspiro[4.5]decane] | 6920 nM | – | 6310 nM | 1380 nM | 107 nM
Fc1ccc(C(c2ccc(F)cc2)N2CCC3(CC2)CNCCO3)cc1 [Example 31, 9-[bis(4-fluorophenyl)methyl]-1-oxa-4,9-diazaspiro[5.5]undecane] | 2630 nM | 46.8 nM | 3160 nM | 2040 nM | –
